Laboratory results taken from ChEMBL document CHEMBL4049401, “Three-component, one-pot synthesis of anthranilamide Schiff bases bearing 4-aminoquinoline moiety as Mycobacterium tuberculosis gyrase inhibitors” (Bioorg Med Chem Lett, 2017).
Converted amounts (≈) assume the structure as drawn.

Tests used:
[1] = system: Mycobacterium tuberculosis; test: Antimycobacterial activity against Mycobacterium tuberculosis H37Rv ATCC 27294 after 5 days by microplate alamar blue assay; type: functional; conditions: H37Rv ATCC 27294, 120 h
[2] = n-octanol/water partition coefficient, log P of the compound; type: physicochemical
[3] = Cytotoxicity against African green monkey Vero cells assessed as cell viability at 100 uM by MTT assay relative to control; type: cell-based; conditions: chlorocebus sabaeus, read-out: Activity

Compound | MIC [1] | logP [2] | viability at 100 µM [3]
O=C(O)c1cn(C2CC2)c2cc(N3CCNCC3)c(F)cc2c1=O [CIPROFLOXACIN] | 12.5 µM (≈ 4.14 µg/mL) |  | 
COc1ccc(/C=N/c2ccccc2C(=O)NNc2ccnc3cc(Cl)ccc23)cc1 | 1.56 µM (≈ 0.672 µg/mL) | 5 | 88.9%
N#Cc1ccc(/C=N/c2ccccc2C(=O)NNc2ccnc3cc(Cl)ccc23)cc1 | 25 µM (≈ 10.6 µg/mL) | 4.83 | 87.2%
O=C(NNc1ccnc2cc(Cl)ccc12)c1ccccc1/N=C/c1cccc(Cl)c1Cl | 6.25 µM (≈ 2.94 µg/mL) | 6.1 | 89.1%
COc1cc(/C=N/c2ccccc2C(=O)NNc2ccnc3cc(Cl)ccc23)cc(OC)c1OC | 6.25 µM (≈ 3.07 µg/mL) | 4.94 | 89.4%
O=C(NNc1ccnc2cc(Cl)ccc12)c1ccccc1/N=C/c1ccc([N+](=O)[O-])cc1 | 25 µM (≈ 11.1 µg/mL) | 4.58 | 88.6%
O=C(NNc1ccnc2cc(Cl)ccc12)c1ccccc1/N=C/c1cc2ccccc2[nH]c1=O | 25 µM (≈ 11.7 µg/mL) | 4.65 | 91.1%
O=C(NNc1ccnc2cc(Cl)ccc12)c1ccccc1/N=C/c1ccc(O)cc1 | 25 µM (≈ 10.4 µg/mL) | 4.65 | 90.1%
O=C(NNc1ccnc2cc(Cl)ccc12)c1ccccc1/N=C/C=C/c1ccccc1 | 3.12 µM (≈ 1.33 µg/mL) | 5.54 | 90.2%
O=C(NNc1ccnc2cc(Cl)ccc12)c1ccccc1/N=C/c1ccc(Cl)cc1Cl | 6.25 µM (≈ 2.94 µg/mL) | 6.22 | 87.6%
O=C(NNc1ccnc2cc(Cl)ccc12)c1ccccc1/N=C/c1ccc(Br)cc1 | 6.25 µM (≈ 3 µg/mL) | 5.76 | 88.5%
O=C(NNc1ccnc2cc(Cl)ccc12)c1ccccc1/N=C/c1ccc(Cl)cc1 | 3.12 µM (≈ 1.36 µg/mL) | 5.62 | 86.7%
CN(C)c1ccc(/C=N/c2ccccc2C(=O)NNc2ccnc3cc(Cl)ccc23)cc1 | 3.12 µM (≈ 1.39 µg/mL) | 5.03 | 88.8%
O=C(NNc1ccnc2cc(Cl)ccc12)c1ccccc1/N=C/c1ccccc1Cl | 25 µM (≈ 10.9 µg/mL) | 5.5 | 88.5%
COc1cc(/C=N/c2ccccc2C(=O)NNc2ccnc3cc(Cl)ccc23)ccc1Oc1ccnc2cc(Cl)ccc12 | 3.12 µM (≈ 1.9 µg/mL) | 7.74 | 89.5%
O=C(NNc1ccnc2cc(Cl)ccc12)c1ccccc1/N=C/c1ccc(F)cc1 | 6.25 µM (≈ 2.62 µg/mL) | 5.18 | 90.7%
O=C(NNc1ccnc2cc(Cl)ccc12)c1ccccc1/N=C/c1ccc(Cl)c(Cl)c1 | 25 µM (≈ 11.7 µg/mL) | 6.22 | 90.2%
O=C(NNc1ccnc2cc(Cl)ccc12)c1ccccc1/N=C/c1ccncc1 | 25 µM (≈ 10 µg/mL) | 3.86 | 85.7%
Cc1ccc(/C=N/c2ccccc2C(=O)NNc2ccnc3cc(Cl)ccc23)cc1 | 0.78 µM (≈ 0.324 µg/mL) | 5.31 | 87.1%
COc1ccc(/C=N/c2ccccc2C(=O)NNc2ccnc3cc(Cl)ccc23)cc1OC | 6.25 µM (≈ 2.88 µg/mL) | 4.97 | 89.2%
O=C(NNc1ccnc2cc(Cl)ccc12)c1ccccc1/N=C/c1cccs1 | 6.25 µM (≈ 2.54 µg/mL) | 4.78 | 89.5%
NC(=O)c1cnccn1 [PYRAZINAMIDE] | 3.12 µM (≈ 0.384 µg/mL) | -0.71 | 
O=C(NNc1ccnc2cc(Cl)ccc12)c1ccccc1/N=C/c1cc2ccccc2nc1Cl | 25 µM (≈ 12.2 µg/mL) | 6 | 94.3%
